Test results as given in patent US9102671B2, “Compounds and compositions as TRK inhibitors” (Novartis AG, priority 2011, dated 2015).

Columns and labels:
[1] = target: T1, Ba/F3 cells co-expressing full length rTrkA and mNGF (Rattus norvegicus, UniProt P35739); test: Ba/F3 cell proliferation, BaF3/TRKA-NGF; type: cell-based; conditions: inhibition of proliferation, 48 hours, Bright-Glo luminescence
T1 construct: co-expressing full length rTrkA and mNGF; expressed in transfected cells; host or cells: Ba/F3 murine hematopoietic progenitor cells

[2] = target: T2, Ba/F3 cells transformed with human Tel-TrkA (Homo sapiens, UniProt P04629); test: Ba/F3 cell proliferation, Ba/F3 Tel-TrkA; type: cell-based; conditions: inhibition of proliferation, 48 hours, Bright-Glo luminescence; read-out: Ba/F3Tel-TrkA
T2 construct: expressed in transfected cells; host or cells: luciferase expressing Ba/F3 murine hematopoietic progenitor cell line; the other entry of the earlier key: ETV6 (P41212, Transcription factor ETV6)
Description: (§1) Test compounds were dissolved in DMSO (10 mM) and transferred into 1.4 mL flat bottom or V-shaped Matrix tubes carrying a unique 2D matrix chip by individual compound hubs. The numbers of these chips were distinctively linked to the individual compound identification numbers. The stock solutions were stored at −20° C. if not used immediately. For the test procedure the vials were defrosted and identified by a scanner whereby a working sheet is generated that guides the subsequent working steps.
(§2) Compound dilutions were made in 384 well plates. This format enabled the assay of maximally 28 individual test compounds at 11 concentrations (single points) including 2 reference compounds. The dilution protocol included the production of pre-dilution plates, master plates and assay plates: • Compound plates: 30 μL of individual compound (10 mM) DMSO solution including reference compound were transferred into columns 1 and 13 of a 384 well plate. 20 μL of DMSO were added to the rest of the wells and the compounds were serially diluted (1:3) by transferring 10 μL from a well in column 1 or 13 to the next well in column 2 or 14 respectively and successively with the help of a Minitrack robot. • Assay plates: Identical assay plates were then prepared by adding 50 nL each of compound dilutions of the compound plates into 384-well “assay plates”. In the following the compounds were mixed with 50 μL of assays components (cells or enzyme) and tested for their inhibitory activity.
(§3) The cell line used is the luciferase expressing Ba/F3 murine hematopoietic progenitor cell line transformed with human Tel-TrkA, Tel-TrkB or Tel-TrkC cDNAs (Ba/F3 EN A/B/C). These cells maintained in RPMI/10% fetal bovine serum (RPMI/FCS) supplemented with penicillin 50 mg/mL, streptomycin 50 mg/mL and L-glutamine 200 mM. Untransformed Ba/F3 cells were similarly maintained with the addition 5 ng/ml of murine recombinant IL3. 50 μl of a Ba/F3 or Ba/F3 EN A/B/C cell suspension were plated in Greiner 384 well microplates (white)) at a density of 2000 cells per well. 50 nl of serially diluted test compound (10-0.0001 mM in DMSO solution) is added to each well. The cells were incubated for 48 hours at 37° C., 5% CO2. 25 μl of Bright Glo® (Promega) luciferase substrate is added to each well. The emited luminiscence is quantified using ViewLux (PerkinElmer). IC50 values were calculated by linear regression analysis of the percentage inhibition of each compound at 11 concentrations.
In certain examples compounds of Formula (I) have IC50 values from 0.1 nM 1 μM. In other examples, compounds of Formula (I) have IC50 values from 0.0001 μM to 0.8 μM. In other examples, compounds of Formula (I) have IC50 values from 0.0001 μM to 0.6 μM. In other examples, compounds of Formula (I) have IC50 values from 0.0001 μM to 0.4 μM. In other examples, compounds of Formula (I) have IC50 values from 0.0001 μM to 0.2 μM. In other examples, compounds of Formula (I) have IC50 values from 0.0001 μM to 0.1 μM. In other examples, compounds of Formula (I) have IC50 values from 0.0001 μM to 0.08 μM. In other examples, compounds of Formula (I) have IC50 values from 0.0001 μM to 0.06 μM. In other examples, compounds of Formula (I) have IC50 values from 0.0001 μM to 0.04 μM. In other examples, compounds of Formula (I) have IC50 values from 0.0001 μM to 0.02 μM. In other examples, compounds of Formula (I) have IC50 values from 0.0001 μM to 0.01 μM. In other examples, compounds of Formula (I) have IC50 values from 0.01 μM to 1 μM.

[3] = test system: parental (untransformed) Ba/F3 cells; test: Ba/F3 cell proliferation, BAF3/WT (parental, IL3); type: cell-based, murine; conditions: Mus musculus, inhibition of proliferation of parental cells with IL3, 48 hours, Bright-Glo luminescence
Description: as §1, §2
Compounds were tested for their ability to inhibit the proliferation of wt Ba/F3 cells and Ba/F3 cells transformed with constitutively expressed luciferase reporter and BCR-ABL or Tel-FMS or other Tel fusion kinases (EGFR, JAK2, ALK, BMX, FGFR3, FGFR4, FGR2, FLT1, FLT3, IGF1R, INSR, KDR, KIT, LCK, LYN, MEK, MET, PDGFRα, PDGFRβ, RET, RON, ROS, SRC, SYK, TIE and TYRO) or BRafV600E. Parental Ba/F3 cells were maintained in media containing recombinant mouse IL3 and the kinase transformed Ba/F3 cells were maintained in media without IL-3. 7.5 nl of compounds were spotted to each well of 1536-well assay plates by Liquid handling System Echo 555 (Labcyte). 700 cells were then plated into each well of the assay plates in 7 uL culture media per well and compounds were tested at 0.17 nM to 10 uM in 3-fold serial dilutions. The cells were then incubated for 48 hours at 37° C. 3 uL of Bright-Glo® (Promega) was added to each well and the plates were read using ViewLux (PerkinElmer).
as §3, with “concentrations. […]” for “concentrations.”

T1 sequence (P35739 33-799): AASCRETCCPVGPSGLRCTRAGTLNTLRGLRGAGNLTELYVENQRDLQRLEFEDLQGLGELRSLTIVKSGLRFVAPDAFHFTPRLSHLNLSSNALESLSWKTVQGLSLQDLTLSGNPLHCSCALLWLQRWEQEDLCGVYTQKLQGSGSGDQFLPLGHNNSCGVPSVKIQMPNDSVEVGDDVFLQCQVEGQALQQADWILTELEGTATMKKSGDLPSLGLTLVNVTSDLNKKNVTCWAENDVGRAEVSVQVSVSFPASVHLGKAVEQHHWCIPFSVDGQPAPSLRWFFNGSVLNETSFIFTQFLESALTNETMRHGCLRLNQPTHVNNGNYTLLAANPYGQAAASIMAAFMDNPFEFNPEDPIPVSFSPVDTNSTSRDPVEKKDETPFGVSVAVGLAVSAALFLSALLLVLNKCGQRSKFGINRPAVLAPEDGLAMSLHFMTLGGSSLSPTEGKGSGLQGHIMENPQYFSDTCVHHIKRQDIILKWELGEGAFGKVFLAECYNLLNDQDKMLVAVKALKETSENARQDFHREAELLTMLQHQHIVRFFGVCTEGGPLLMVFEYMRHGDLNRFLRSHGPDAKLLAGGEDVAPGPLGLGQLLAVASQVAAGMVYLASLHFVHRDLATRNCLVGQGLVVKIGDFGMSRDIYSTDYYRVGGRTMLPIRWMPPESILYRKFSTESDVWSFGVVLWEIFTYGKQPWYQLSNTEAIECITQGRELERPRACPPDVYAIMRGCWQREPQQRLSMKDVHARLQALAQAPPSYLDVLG
T1 sequence (P01139 122-241 partner): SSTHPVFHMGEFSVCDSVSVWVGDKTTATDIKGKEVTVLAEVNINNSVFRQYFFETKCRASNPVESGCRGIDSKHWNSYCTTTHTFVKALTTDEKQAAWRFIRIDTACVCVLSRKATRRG
T2 sequence (P04629 510-796 limits assumed): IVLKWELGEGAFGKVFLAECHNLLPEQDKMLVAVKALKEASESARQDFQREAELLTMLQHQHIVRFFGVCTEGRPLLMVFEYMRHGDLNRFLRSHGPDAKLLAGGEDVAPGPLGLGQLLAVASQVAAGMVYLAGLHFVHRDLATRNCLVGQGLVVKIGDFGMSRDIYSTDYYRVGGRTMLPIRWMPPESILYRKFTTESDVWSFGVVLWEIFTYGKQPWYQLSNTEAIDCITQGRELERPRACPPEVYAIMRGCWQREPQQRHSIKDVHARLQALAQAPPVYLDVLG

Compound: N#Cc1cc(F)cc([C@H]2C[C@H](F)CN2c2ccn3ncc(C(N)=O)c3c2)c1 [Example X-10, 5-((2R,4S)-2-(3-cyano-5-fluorophenyl)-4-fluoropyrrolidin-1-yl)pyrazolo[1,5-a]pyridine-3-carboxamide]
- IC50 [1]: 8 nM
- IC50 [2]: 5 nM
- melting point: 140 °C (dec.)
- IC50 [3]: > 10000 nM

Compound: NC(=O)c1cnn2ccc(N3CC(F)(F)C[C@@H]3c3cccc(F)c3)cc12 [Example X-6, (R)-5-(4,4-difluoro-2-(3-fluorophenyl)pyrrolidin-1-yl)pyrazolo[1,5-a]pyridine-3-carboxamide]
- IC50 [1]: 16 nM
- IC50 [2]: 24 nM
- IC50 [3]: > 10000 nM

Compound: CCOC(=O)c1cnn2ccc(N3CC(F)(F)C[C@@H]3c3cccc(F)c3)cc12 [Example X-2, (R)-ethyl 5-(4,4-difluoro-2-(3-fluorophenyl)pyrrolidin-1-yl)pyrazolo[1,5-a]pyridine-3-carboxylate]
- IC50 [1]: 3 nM
- IC50 [2]: 3 nM
- IC50 [3]: > 10000 nM

Compound: CCOC(=O)c1cnn2ccc(N3C[C@@H](F)C[C@@H]3c3cc(F)cc(C#N)c3)cc12 [Example X-7, ethyl 5-((2R,4S)-2-(3-cyano-5-fluorophenyl)-4-fluoropyrrolidin-1-yl)pyrazolo[1,5-a]pyridine-3-carboxylate]
- IC50 [1]: 2 nM
- IC50 [2]: 1 nM
- IC50 [3]: 4490 nM

Compound: CCOC(=O)c1cnn2ccc(N3C[C@@H](C(N)=O)C[C@@H]3c3cccc(F)c3)cc12 [Example X-20, ethyl 5-((2R,4S)-4-carbamoyl-2-(3-fluorophenyl)pyrrolidin-1-yl)pyrazolo[1,5-a]pyridine-3-carboxylate]
- IC50 [1]: 2 nM
- IC50 [2]: 2 nM
- IC50 [3]: > 10000 nM

Compound: O=C(Nc1ccccc1)c1cnn2ccc(N3C[C@@H](F)C[C@@H]3c3cccc(F)c3)cc12 [Example X-22, 5-[(2R,4S)-4-fluoro-2-(3-fluorophenyl)pyrrolidin-1-yl]-N-phenylpyrazolo[1,5-a]pyridine-3-carboxamide]
- IC50 [1]: 17 nM
- IC50 [2]: 11 nM
- IC50 [3]: > 10000 nM

Compound: CCOC(=O)c1cnn2ccc(N3C[C@@H](C#N)C[C@@H]3c3cccc(F)c3)cc12 [Example X-19, ethyl 5-((2R,4S)-4-cyano-2-(3-fluorophenyl)pyrrolidin-1-yl)pyrazolo[1,5-a]pyridine-3-carboxylate]
- IC50 [1]: 7 nM
- IC50 [2]: 7 nM
- IC50 [3]: > 10000 nM

Compound: CCNC(=O)c1cnn2ccc(N3C[C@@H](F)C[C@@H]3c3cccc(F)c3)cc12 [Example X-14, N-ethyl-5-[(2R,4S)-4-fluoro-2-(3-fluorophenyl)pyrrolidin-1-yl]pyrazolo[1,5-a]pyridine-3-carboxamide]
- IC50 [1]: 8 nM
- IC50 [2]: 6 nM
- IC50 [3]: > 10000 nM

Compound: O=C(O)c1cnn2ccc(N3C[C@@H](F)C[C@@H]3c3cccc(F)c3)cc12 [Example X-3, 5-((2R,4S)-4-fluoro-2-(3-fluorophenyl)pyrrolidin-1-yl)pyrazolo[1,5-a]pyridine-3-carboxylic acid]
- IC50 [1]: 110 nM
- IC50 [2]: 147 nM
- IC50 [3]: > 10000 nM

Compound: N#Cc1cc(F)cc([C@@H]2C[C@H](F)CN2c2ccn3ncc(C(N)=O)c3c2)c1 [Example X-27]
- IC50 [1]: > 10000 nM
- IC50 [2]: > 10000 nM
- IC50 [3]: > 10000 nM

Compound: O=C(O)c1cnn2ccc(N3CC(F)(F)C[C@@H]3c3cccc(F)c3)cc12 [Example X-4, (R)-5-(4,4-difluoro-2-(3-fluorophenyl)pyrrolidin-1-yl)pyrazolo[1,5-a]pyridine-3-carboxylic acid]
- IC50 [1]: 666 nM
- IC50 [2]: 1680 nM
- IC50 [3]: > 10000 nM
